Measurements: patent publication US10294234B2, “HIV inhibitor compounds” (priority 2017, dated 2019)
Read-outs that look alike come from different tables or passages of the source.

System: HIV-1 (IIIB) in MT-4 cells
Assay: MT-4 HIV assay
Assay type: cell-based
Details: Human immunodeficiency virus 1, MT4, 120 h
How it was run: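 MT-4 cells infected with HIV-1 IIIB (1:250 stock dilution) were incubated with 1:3 serially diluted compounds in RPMI with 10% FBS for 5 days at 37 °C. Cell Titer Glo luminescence was the readout. Plates included mock-infected wells, no-drug wells and 5 uM AZT controls.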

[1] = HIV-1 (IIIB), MT-4 cells, 5 days, Cell Titer Glo, read-out: EC50

Row | SMILES | EC50 [1] [nM] | EC50 [nM]
1 | CC(C)([C@H](NC(=O)C1CC1)C(=O)N[C@@H](Cc1ccc(-c2cnn(C(F)F)c2)cc1)[C@@H](O)CN(Cc1c(F)cc(-c2ccn(C(F)F)n2)cc1F)NC(=O)[C@@H](NC(=O)C1CC1)C(C)(C)C(F)(F)F)C(F)(F)F [Example 213, N—((S)-1-(2-((2S,3S)-3-((S)-2-(cyclopropanecarboxamido)-4,4,4-trifluoro-3,3-dimethylbutanamido)-4-(4-(1-(difluoromethyl)-1H-pyrazol-4-yl)phenyl)-2-hydroxybutyl)-2-(4-(1-(difluoromethyl)-1H-pyrazol-3-yl)-2,6-difluorobenzyl)hydrazinyl)-4,4,4-trifluoro-3,3-dimethyl-1-oxobutan-2-yl)cyclopropanecarboxamide] | 4.86 | 
2 | CCC(=O)N[C@H](C(=O)N[C@@H](Cc1ccc(-c2cnn(C(F)F)c2)cc1)[C@@H](O)CN(Cc1c(F)cc(-c2cnn(C(F)F)c2)cc1F)NC(=O)[C@@H](NC(=O)CC)C(C)(C)C(F)(F)F)C(C)(C)C(F)(F)F [Example 215, (S)—N-((2S,3S)-4-(1-(4-(1-(difluoromethyl)-1H-pyrazol-4-yl)-2,6-difluorobenzyl)-2-((S)-4,4,4-trifluoro-3,3-dimethyl-2-propionamidobutanoyl)hydrazinyl)-1-(4-(1-(difluoromethyl)-1H-pyrazol-4-yl)phenyl)-3-hydroxybutan-2-yl)-4,4,4-trifluoro-3,3-dimethyl-2-propionamidobutanamide] | 18.2 | 
3 | CC1(C(=O)N[C@H](C(=O)N[C@@H](Cc2ccc(-c3cnn(C(F)F)c3)cc2)[C@@H](O)CN(Cc2c(F)cc(-c3cnn(C(F)F)c3)cc2F)NC(=O)[C@@H](NC(=O)C2(C)CC2)C(C)(C)C(F)(F)F)C(C)(C)C(F)(F)F)CC1 [Example 216, N—((S)-1-(2-(4-(1-(difluoromethyl)-1H-pyrazol-4-yl)-2,6-difluorobenzyl)-2-((2S,3S)-4-(4-(1-(difluoromethyl)-1H-pyrazol-4-yl)phenyl)-2-hydroxy-3-((S)-4,4,4-trifluoro-3,3-dimethyl-2-(1-methylcyclopropane-1-carboxamido)butanamido)butyl)hydrazinyl)-4,4,4-trifluoro-3,3-dimethyl-1-oxobutan-2-yl)-1-methylcyclopropane-1-carboxamide] | 114 | 
4 | CC(=O)N[C@H](C(=O)N[C@@H](Cc1ccc(-c2cnn(C(F)F)c2)cc1)[C@@H](O)CN(Cc1c(F)cc(-c2cnn(C(F)F)c2)cc1F)NC(=O)[C@@H](NC(C)=O)C(C)(C)C(F)(F)F)C(C)(C)C(F)(F)F [Example 217, (S)-2-acetamido-N-((2S,3S)-4-(2-((S)-2-acetamido-4,4,4-trifluoro-3,3-dimethylbutanoyl)-1-(4-(1-(difluoromethyl)-1H-pyrazol-4-yl)-2,6-difluorobenzyl)hydrazinyl)-1-(4-(1-(difluoromethyl)-1H-pyrazol-4-yl)phenyl)-3-hydroxybutan-2-yl)-4,4,4-trifluoro-3,3-dimethylbutanamide] | 113 | 
5 | COC(=O)N[C@H](C(=O)N[C@H](C(=O)N[C@@H](Cc1ccc(C#Cc2cnc(N3CC4CC(C3)N4C3COC3)nc2)cc1)[C@@H](O)CN(Cc1c(F)cc(-c2ccn(CC(F)F)n2)cc1F)NC(=O)[C@@H](NC(=O)OC)C(C)(C)C)C(C)(C)C)C(C)C [Example 222, Methyl ((5S,8S,11S,12S,17S)-8-(tert-butyl)-14-(4-(1-(2,2-difluoroethyl)-1H-pyrazol-3-yl)-2,6-difluorobenzyl)-12-hydroxy-5-isopropyl-18,18-dimethyl-11-(4-((2-(6-(oxetan-3-yl)-3,6-diazabicyclo[3.1.1]heptan-3-yl)pyrimidin-5-yl)ethynyl)benzyl)-3,6,9,16-tetraoxo-2-oxa-4,7,10,14,15-pentaazanonadecane-17-yl)carbamate] |  | 12.9
6 | COC(=O)N[C@H](C(=O)N[C@H](C(=O)N[C@@H](Cc1ccc(C#Cc2cnc(N3CC4CC(C3)N4C3COC3)nc2)cc1)[C@@H](O)CN(Cc1c(F)cc(-c2ccn(CC(F)F)n2)cc1F)NC(=O)[C@@H](NC(=O)OC)C(C)(C)C)C(C)(C)C)C(C)(C)C [Example 223, Methyl ((5S,8S,11S,12S,17S)-5,8-di-tert-butyl-14-(4-(1-(2,2-difluoroethyl)-1H-pyrazol-3-yl)-2,6-difluorobenzyl)-12-hydroxy-18,18-dimethyl-11-(4-((2-(6-(oxetan-3-yl)-3,6-diazabicyclo[3.1.1]heptan-3-yl)pyrimidin-5-yl)ethynyl)benzyl)-3,6,9,16-tetraoxo-2-oxa-4,7,10,14,15-pentaazanonadecane-17-yl)carbamate] |  | 12.9
7 | COC(=O)N[C@H](C(=O)NN(Cc1c(F)cc(-c2ccccn2)cc1F)C[C@H](O)[C@H](Cc1ccc(C#Cc2ccc(N3CC4CCC(C3)N4C(=O)[C@@H]3CCCO3)nc2)cc1)NC(=O)[C@@H](NC(=O)OC)C(C)(C)C(F)(F)F)C(C)(C)C [Example 224, Methyl ((5S,8S,9S,14S)-11-(2,6-difluoro-4-(pyridin-2-yl)benzyl)-9-hydroxy-15,15-dimethyl-3,6,13-trioxo-8-(4-((6-(8-((S)-tetrahydrofuran-2-carbonyl)-3,8-diazabicyclo [3.2.1]octan-3-yl)pyridin-3-yl)ethynyl)benzyl)-5-(1,1,1-trifluoro-2-methylpropan-2-yl)-2-oxa-4,7,11,12-tetraazahexadecan-14-yl)carbamate] | 4.12 | 
8 | COC(=O)N[C@H](C(=O)N[C@@H](Cc1ccc(C#Cc2ccc(N3CC4CCC(C3)N4C(=O)[C@@H]3CCCO3)nc2)cc1)[C@@H](O)CN(Cc1c(F)cc(-c2ccccn2)cc1F)NC(=O)[C@@H](NC(=O)OC)C(C)(C)C)C(C)(C)C [Example 225, Methyl ((5S,8S,9S,14S)-5-(tert-butyl)-11-(2,6-difluoro-4-(pyridin-2-yl)benzyl)-9-hydroxy-15,15-dimethyl-3,6,13-trioxo-8-(4-((6-(8-((S)-tetrahydrofuran-2-carbonyl)-3,8-diazabicyclo[3.2.1]octan-3-yl)pyridin-3-yl)ethynyl)benzyl)-2-oxa-4,7,11,12-tetraazahexadecan-14-yl)carbamate] | 4.26 | 
9 | COC(=O)N[C@H](C(=O)N[C@@H](Cc1ccc(C#Cc2ccc(N3CC4CCC(C3)N4c3ncccn3)nc2)cc1)[C@@H](O)CN(Cc1c(F)cc(-c2ccn(C)n2)cc1F)NC(=O)[C@@H](NC(=O)OC)C(C)(C)C)C(C)(C)C [Example 226] | 14.9 | 
10 | COC(=O)N[C@H](C(=O)N[C@@H](Cc1ccc(C#Cc2ccc(N3CC4CCC(C3)N4C(=O)[C@@H]3CCCO3)nc2)cc1)[C@@H](O)CN(Cc1c(F)cc(-c2ccn(C)n2)cc1F)NC(=O)[C@@H](NC(=O)OC)C(C)(C)C)C(C)(C)C [Example 227, Methyl ((5S,8S,9S,14S)-5-(tert-butyl)-11-(2,6-difluoro-4-(1-methyl-1H-pyrazol-3-yl)benzyl)-9-hydroxy-15,15-dimethyl-3,6,13-trioxo-8-(4-((6-(8-((S)-tetrahydrofuran-2-carbonyl)-3,8-diazabicyclo[3.2.1]octan-3-yl)pyridin-3-yl)ethynyl)benzyl)-2-oxa-4,7,11,12-tetraazahexadecan-14-yl)carbamate] | 2.9 | 
11 | COC(=O)N[C@H](C(=O)N[C@@H](Cc1ccc(C#Cc2ccc(N3CCN(C(C)=O)CC3)nc2)cc1)[C@@H](O)CN(Cc1c(F)cc(-c2ccn(C)n2)cc1F)NC(=O)[C@@H](NC(=O)OC)C(C)(C)C)C(C)(C)C [Example 228] |  | 1.66
